Test results as given in ChEMBL document CHEMBL3507680, “University of Dundee, Gates Library screen for HepG2 cell viability”.

Test: Human HepG2 cell viability assay in 384 well format
Type: toxicity, cell-based
Set-up: dose 125 nL, time 70.5 hour; concentration not given beside the values
Settings: HepG2 cells, read-out: Inhibition

Structure (SMILES) | cytotoxicity at 70.5 h [%]
O=C(C(CNCc1ccccn1)c1ccccc1)N1CCOCC1 (centres undefined) | 0.375
O=S(=O)(NCC1COc2ccccc2C1)N1CCCCC1 (centres undefined) | -9.29
CC(C(=O)N1CCN(Cc2ccncc2)CC1)n1cncn1 (centres undefined) | -4.9
N#Cc1ccc(CNc2cccc(C(=O)N3CCOCC3)c2)cc1 | -9.56
Cc1ccc(OCCNc2cccc(C(=O)N3CCOCC3)c2)cc1 | 23.6
CC(C)Cc1nc(CN2CCC(NC(=O)c3cccs3)CC2)no1 | -6.12
CC(C)c1nn(C)c(N(C)C)c1CNCC(O)COc1ccccc1 (centres undefined) | -3.95
Cc1noc(C)c1CN1CCN(C(=O)C(C(C)C)n2cncn2)CC1 (centres undefined) | 2.25
CC(C)(C)C(=O)NCCCC(=O)NC(C)(C)c1ccc2c(c1)OCO2 | 3.16
COc1ccc(OCCNc2cccc(C(=O)N3CCOCC3)c2)cc1 | -3.69
CC(C)(C)C(=O)NCCC(=O)NC(C)(C)c1ccc2c(c1)OCO2 | -3.54
O=C(C(CNCc1cccc(O)c1)c1ccccc1)N1CCOCC1 (centres undefined) | -4.48
COCC(NC(=O)c1ccoc1C)c1cccc(C(F)(F)F)c1 (centres undefined) | -2.1
O=C(C(CNCc1ccccc1O)c1ccccc1)N1CCOCC1 (centres undefined) | -2.58
CC(=O)N1CCc2cc(Cl)cc(Cl)c2C1 | -5.27
COCCOCC(=O)N1CCc2cc(Cl)cc(Cl)c2C1 | -6.61
COC(=O)NCC(=O)N1CCc2cc(Cl)cc(Cl)c2C1 | -1.77
CC(C)c1noc(CN(Cc2ccccc2)C2CC2)n1 | 0.0143
CCOc1cc(CN(C)Cc2ccccc2)ccc1OC(F)F | -6.62
CSc1ccc(CN(C)Cc2noc(C(C)(C)C)n2)cc1 | -6.11
CCOc1cc(CN(C)CCCO)ccc1OC(F)F | -6.49
COCC(NC(=O)c1cccnc1)c1cccc(C(F)(F)F)c1 (centres undefined) | -5.85
CCc1nc(C2CCCN2Cc2nc(C(C)(C)C)no2)no1 (centres undefined) | 2.43
CC(C)c1noc(CN(Cc2ccc(F)cc2)C2CC2)n1 | -8.41

Structure (SMILES) | cytotoxicity at 70.5 h [%]
CN(Cc1noc(C(C)(C)C)n1)Cc1ccccc1N1CCCCC1 | -6.13
Cc1cc(CN2CCc3cncnc3C2)on1 | 9.54
Cc1cnn(CCNCC(O)c2ccc3c(c2)OCCO3)c1 (centres undefined) | 4.42
CCN(CC)c1ncc(CNC2CCc3nc(C)nn3C2)s1 (centres undefined) | 4.79
CN(CC(N)=O)C(=O)c1cc(Cl)c(Cl)n1C | -5.05
Cc1nnc(C2Cc3ccccc3CN2Cc2ncc(Cl)n2C)o1 (centres undefined) | -13.3
C=C(C)CN1CCCC(NS(C)(=O)=O)C1 (centres undefined) | -5.08
CNC(=O)CN(C)C(=O)c1cc(Cl)c(Cl)n1C | 17.1
CCNC(=O)NC(=O)CN1CCCC1c1nc(C2CCCCC2)co1 (centres undefined) | -7.64
NC(=O)NC(=O)CCN1CCCC1c1nc(C2CCCCC2)co1 (centres undefined) | 13.4
COCCCn1ccc(NC(=O)NCc2cccc(N(C)C)c2)n1 | -5.16
CN(C)C(=O)CCCn1ccc(NC(=O)NCc2cccc(F)c2)n1 | -16.5
CCc1nc2n(n1)CC(NCc1cnc(N(CC)CC)s1)CC2 (centres undefined) | -18.7
Cc1cccc(CNC(=O)Nc2ccn(CCN(C)C)n2)c1 | -7.32
CN(CC(=O)Nc1cc(-c2cc(Cl)cc(Cl)c2)[nH]n1)S(C)(=O)=O | -5.73
Cn1ccnc1CN(CCCO)CC(F)(F)F | 0.0577
CCc1cc(CNCc2ccccc2N(C)C2CCN(C)CC2)on1 | -1.28
CN(C)CCn1ccc2cc(NC(=O)NCc3ncnn3C)ccc21 | -3.79
O=C(NCCO)NCC(c1ccccc1)N1CCc2sccc2C1 (centres undefined) | -13.1
CC(NC(=O)Nc1nccs1)c1ccncc1 (centres undefined) | -10.5
CC(NC(=O)Nc1nccs1)c1cccnc1 (centres undefined) | -2.43
Cc1cccc(N2N=C(C(=O)NC(C)Cn3cccn3)CCC2=O)c1 (centres undefined) | -14.7
Cc1ccc(C(=O)NCC2COCCO2)c(=O)[nH]1 (centres undefined) | -17
CCN1CCC(NC(=O)Cc2csc(C(C)(C)C)n2)CC1 | 24.8

Structure (SMILES) | cytotoxicity at 70.5 h [%]
Cc1cc(NC(=O)Nc2ccc3c(ccn3CCN(C)C)c2)n(C)n1 | 2.58
Cn1cccc1-c1nnc(C2(c3ccc4c(c3)OCO4)CCOCC2)o1 | -9.42
c1cncc(-c2nnc(C3(c4ccc5c(c4)OCO5)CCOCC3)o2)c1 | -15.4
CCCc1noc(CCC(=O)N2CCCC(c3ccn[nH]3)C2)n1 (centres undefined) | -9.26
CCOCc1ccc(NC(=O)C(C)C)cc1 | 19.1
CCc1noc(CC)c1CC(=O)N1CCC(C(=O)NC(C)C)CC1 | -3.58
CN(C)CCn1ccc2cc(NC(=O)NCc3ccon3)ccc21 | -8.32
CCc1noc(C(C)SCCS(C)(=O)=O)n1 (centres undefined) | -7.13
CCOCCCC(=O)NCC(c1ccccc1)N1CCc2sccc2C1 (centres undefined) | 16.8
CC(C)(C)c1nc(CC(=O)NC2CCN(C3CC3)C2)cs1 (centres undefined) | -6.08
CCCNC(=O)CN1CCOC(CC)C1 (centres undefined) | -15.7
CCC1CN(CC(=O)NC(C)C)CCO1 (centres undefined) | -10.4
CCC1CN(CC(=O)NCCOC)CCO1 (centres undefined) | -4.46
CN1CCC(N(C)c2ccccc2CNCc2ccco2)CC1 | 30.3
Cc1noc(C)c1CNCc1ccccc1N(C)C1CCN(C)CC1 | -4.38
CCN(CCc1nccs1)C(=O)c1ncoc1C | -13.2
O=C(CCCc1nc(C2CC2)no1)N1CCCC(c2ccn[nH]2)C1 (centres undefined) | -7.72
COCCN(Cc1ccccn1)C(=O)c1ccc(=O)n(C)c1 | 1.44
CCN(Cc1cccs1)C(=O)c1ccc(=O)n(C)c1 | 1.17
O=C(CCN1C(=O)CCC1=O)Nc1ccc(OCC(F)(F)F)nc1 | -0.0202
COc1c(Cl)cc(C(=O)NCCNc2ncccn2)cc1Cl | 20.5
Cc1noc(CCCC(=O)Nc2cc(C(F)(F)F)c[nH]c2=O)n1 | -3.91
CNC(=O)c1ccc(NC(=O)NC(C)c2cc(C)oc2C)c(C)c1 (centres undefined) | -5.7
O=C(CCc1ccccc1)N1CCC(c2n[nH]c(C3CC3)n2)CC1 | -7.31

Structure (SMILES) | cytotoxicity at 70.5 h [%]
COc1cc(OC)cc(C(=O)NCCCNc2ncccn2)c1 | -7.17
NC(=O)C1=NC2=NS(=O)(=O)c3ccccc3N2N1Cc1ccc(Cl)cc1 | 1.74
Cn1c(N)nnc1SCc1ccc(Cl)cc1Br | -11.2
Cc1ccc(CNC(=O)c2c[nH]nc2NC(=O)C2COCCO2)cc1 (centres undefined) | -0.405
CCCNC(=O)CCC(=O)N1CCC(c2n[nH]c(C3CC3)n2)CC1 | 21.7
O=C(NCc1ccccc1OCC1CC1)C1CCOC1 (centres undefined) | 1.2
CCOc1cc(NC(=O)N(C)Cc2ncnn2C)ccc1C | 20.6
CCOc1ccc(NC2CCN(C(C)C)C2=O)cn1 (centres undefined) | -3.98
COc1ccc(NC2CCN(C3CC3)C2=O)cn1 (centres undefined) | 5.36
CCC(C)Oc1cc(C(=O)Nc2nnc(C(C)C)[nH]2)ccn1 (centres undefined) | 3.52
CC(=O)N(CCc1ccccc1)CC(=O)NC(C)(C)C#N | -2.72
CCN(C(=O)NCc1cccnc1N(C)C)C(C)c1cccnc1 (centres undefined) | -8.8
Cc1nc(CNC2CCN(Cc3ccccc3)C2)sc1C (centres undefined) | -4.16
CCC1COCCN1C(=O)NCc1cccc(-c2cnn(C)c2)c1 (centres undefined) | -6.22
CCn1nc(C(=O)N2CCCC2c2noc(C3CC3)n2)ccc1=O (centres undefined) | 12.1
Cc1cccc(N(CCC#N)S(=O)(=O)CC2CCCCO2)c1 (centres undefined) | 34.5
CCCn1nc(C(=O)N2CCCC2c2noc(C)n2)ccc1=O (centres undefined) | -0.244
N#CCCNC(=O)CN1CCC(c2cc3ccccc3[nH]2)CC1 | -10.1
CN(C(=O)CN1CCC(c2cc3ccccc3[nH]2)CC1)C(C)(C)C#N | -16.1
CN(CCC#N)C(=O)CN1CCC(c2cc3ccccc3[nH]2)CC1 | 4.21
Cc1cc(NC(C)C(=O)NCc2ccccc2)nc(-c2ccncc2)n1 (centres undefined) | -13.1
CCN(CC)c1ccc(C(=O)NCC2(C(N)=O)CCOCC2)cn1 | -4.92
O=C(NC1CCN(c2ncccn2)CC1)c1cc2c([nH]c1=O)CCC2 | -10.7
CN(CC(F)(F)F)C(=O)CN1CCC(c2cc3ccccc3[nH]2)CC1 | -25

Structure (SMILES) | cytotoxicity at 70.5 h [%]
O=C(CN1CCc2[nH]c3ccccc3c2C1)NCc1ccco1 | -10.8
CN(C)C(=O)C1CCN(Cn2ccc(-c3ccc(F)cc3)n2)CC1 | -12.5
CN1CCCC(N2CCN(c3cc(C(F)(F)F)ccn3)CC2)C1 (centres undefined) | -5.61
Cc1ccc(N2CCC(NCc3cnc(C4CCC4)s3)CC2)nc1 | 6.63
CCC(C)NC(=O)CCc1ccnc2ccccc12 (centres undefined) | 2.59
O=C(NCc1ccc2c(c1)OCO2)N1CCCC2(C1)OCCO2 | -7.83
COc1c(Br)cccc1CCNC(=O)c1csnn1 | -11.9
Cn1ccc(CNC(=O)N2CCC(C3(C)OCCO3)CC2)c1 | -8.7
CSCCC(NC(=O)c1ccc2ccccc2n1)C(=O)N(C)C (centres undefined) | 18
COCC(C)N(C)C(=O)NC1CCN(S(C)(=O)=O)CC1 (centres undefined) | -6.45
CSCCC(NC(=O)c1ccc2ccccc2n1)C(=O)NC(C)C (centres undefined) | -3.96
CCN(CCC(=O)OC)S(=O)(=O)c1cnc2c(c1)c(C)nn2C | -4.3
O=C(NCC1CCCCO1)c1ccc(-c2ccco2)[nH]c1=O (centres undefined) | -8.49
Cc1ccc(C(=O)NCC2CCCCO2)c(=O)[nH]1 (centres undefined) | -3.97
Cc1nccn1-c1ccc(CNC(=O)c2ccc(O)nc2)cn1 | -9.46
O=C(NCC1CCCCO1)c1ccc(-c2cccs2)[nH]c1=O (centres undefined) | -0.0205
CN(C1CCN(c2ccccn2)CC1)S(=O)(=O)N1CCOCC1 | -7.57
CC(C)C(C)(C#N)NC(=O)Cn1cc(I)cn1 (centres undefined) | -3.37
CN(Cc1cc(F)ccc1F)CC(C)(CO)CO | -5.92
Cc1nnc(SCCC(=O)N(C)Cc2c(F)cccc2Cl)[nH]1 | -3.01
Cc1nnc(CN(Cc2ccc(Cl)c(Cl)c2)C(C)C)o1 | -14
Cc1cccc(C2(NCCCS(C)(=O)=O)CCCC2)c1 | -6.96
Cc1sc(Br)cc1S(=O)(=O)NCCN | -7.86
